Measured values from patent publication US9840464B2, “IAP binding compounds” (TetraLogic Birinapant UK Ltd., priority 2004, dated 2017).

Legend:
XIAP-BIR3 = XIAP-BIR3 (Homo sapiens, UniProt P98170); assay: XIAP BIR3 fluorescence polarization binding assay (competition with AbuRPF-K(5-Fam)-NH2); conditions: 5 nM AbuRPF-K(5-Fam)-NH2, 40 nM XIAP-BIR3, pH 7.5; Kd calculated from measured IC50; read-out: KD Range
Experimental: Binding constants (Kd) were measured using fluorescence polarization as described by Zaneta Nikolovska-Coleska, Renxiao Wang, Xueliang Fang, Hongguang Pan, York Tomita, Peng Li, Peter P. Roller, Krzysztof Krajewski, Naoyuki Saito, Jeanne Stuckey and Shaomeng Wang, in “Development and Optimization of a Binding Assay for the XIAP BIR3 Domain Using Fluorescence Polarization”, Analytical Biochemistry 2004, 332, 261-273). Briefly, test IAP binding compounds at various concentrations for binding measurements were mixed with 5 nM fluorescently labeled peptide (AbuRPF-K(5-Fam)-NH2) and 40 nM of XIAP-BIR3 for 15 minutes at room temperature in 100 μL of 0.1M Potassium Phosphate buffer, pH 7.5 containing 100 μg/ml bovine γ-globulin. Following incubation, the polarization values (mP) were measured on a Victor^2V using a 485 nm excitation filter and a 520 nm emission filter. IC50 values were determined from the plot using nonlinear least-squares analysis using GraphPad Prism. The Kd values of competitive inhibitors were calculated using the equation described by Zaneta Nikolovska-Coleska et al. based upon the measured IC50 values, the Kd value of the probe and XIAP BIR3 complex, and the concentrations of the protein and probe in the competition assay. In various examples of IAP binding or IAP binding cargo molecules ranges for Kd values: Group A: Kd<0.1 μM; Group B: Kd=0.1-1 μM; Group C: Kd=1-10 μM; Group D: Kd>10 μM.

SK-OV-3 cells = assay: MTT cell growth/survival assay; type: cell-based; conditions: Homo sapiens, 72 hrs incubation, drug concentration that results in 50% cell survival
Experimental: The MTT assay is an example of an assay that has been used for measuring cell growth as previously described (Hansen, M. B., Nielsen, S. E., and Berg, K. J. Immunol. Methods 1989, 119, 203-210) and incorporated herein by reference in its entirety. Briefly, SK-OV-3 cells were seeded in 96-well plates in McCoy's medium containing 10% fetal bovine serum […] (20,000 per well) and incubated overnight at 37° C. Next day, test compounds were added at various concentrations typically from about 10 to about 0.0001 μM and the plates were incubated at 37° C. for an additional 72 hrs. This incubation time was optimal for measuring inhibitory effects of different analogs. 50 microliters of 5 mg/mL MTT reagent to each well was added and the plates were incubated at 37° C. for 3 hours. At the end of incubation period, 50 microliters of DMSO was added to each well to dissolve cells and the optical density (OD) of the wells was measured with a microplate reader (Victor^2 1420, Wallac, Finland) at 535 nm. Cell survival (CS) was calculated by the following equation: CS=(OD treated well/mean OD control wells)×100%
The EC50, defined as the drug concentration that results in 50% CS, was derived by calculating the point where the dose-response curve crosses the 50% CS point using GraphPad Prism.

XIAP-BIR3, sequence (P98170 241-356 limits assumed): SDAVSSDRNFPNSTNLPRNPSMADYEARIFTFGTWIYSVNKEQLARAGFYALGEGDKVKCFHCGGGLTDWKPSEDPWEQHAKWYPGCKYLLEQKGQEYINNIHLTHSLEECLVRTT

Row | Compound | Kd (XIAP-BIR3) [nM] | EC50 (SK-OV-3 cells) [µM]
1 | CC(C)C(NC(=O)C(C)(C)N)C(=O)N1CCCC1Cc1coc2ccccc12 (stereo not drawn) [Entry 5-64] | > 10000 | –
2 | CC(=O)NC(C)C(=O)NC(C(=O)N1CCCC1Cc1coc2ccccc12)C(C)C (stereo not drawn) [Entry 5-65] | > 10000 | –
3 | CC(NC=O)C(=O)NC(C(=O)N1CCCC1Cc1coc2ccccc12)C(C)C (stereo not drawn) [Entry 5-67] | > 10000 | –
4 | CCNC(C)C(=O)NC(C(=O)N1CCCC1Cc1coc2ccccc12)C(C)C (stereo not drawn) [Entry 5-68] | 1000 to 10000 | –
5 | CC(NCC1CC1)C(=O)NC(C(=O)N1CCCC1Cc1coc2ccccc12)C(C)C (stereo not drawn) [Entry 5-70] | 1000 to 10000 | –
6 | CC(C)C(NC(=O)C1CCCN1)C(=O)N1CCCC1Cc1coc2ccccc12 (stereo not drawn) [Entry 5-74] | > 10000 | –
7 | CC(N)C(=O)NC(C(=O)N1CCCC1Cc1coc2ccc(O)cc12)C(C)C (stereo not drawn) [Entry 6-75, 2-Amino-N-{1-[2-(5-hydroxy-benzofuran-3-ylmethyl)-pyrrolidine-1-carbonyl]-2-methyl-propyl}-propionamide] | 1000 to 10000 | –
8 | COc1ccc2occ(CC3CCCN3C(=O)C(NC(=O)C(C)N)C(C)C)c2c1 (stereo not drawn) [Entry 7-76, 2-Amino-N-{1-[2-(5-methoxy-benzofuran-3-ylmethyl)-pyrrolidine-1-carbonyl]-2-methyl-propyl}-propionamide] | 1000 to 10000 | –
9 | CC(N)C(=O)NC(C(=O)N1CCCC1Cc1coc2ccc(OCC3CC3)cc12)C(C)C (stereo not drawn) [Entry 7-77] | > 10000 | –
10 | CC(N)C(=O)NC(C(=O)N1CCCC1Cc1coc2ccc(-c3ccncc3)cc12)C(C)C (stereo not drawn) [Entry 8-78] | 100 to 1000 | –
11 | CC(N)C(=O)NC(C(=O)N1CCCC1Cc1c(Br)oc2ccccc12)C(C)C (stereo not drawn) [Entry 9-80] | 100 to 1000 | –
12 | CC(C)[C@H](NC(=O)[C@H](C)N)C(=O)N1CCC[C@H]1Cc1c(-c2ccncc2)oc2ccccc12 [Entry 9-81, 2S-Amino-N-{2-methyl-1S-[2S-(2-pyridin-4-yl-benzofuran-3-ylmethyl)-pyrrolidine-1-carbonyl]-propyl}-propionamide] | < 100 | –
13 | CC(N)C(=O)NC(C(=O)N1CCCC1Cc1c(-c2cccnc2)oc2ccccc12)C(C)C (stereo not drawn) [Entry 9-82] | 100 to 1000 | –
14 | CC(N)C(=O)NC(C(=O)N1CCCC1Cc1c(-c2nccs2)oc2ccccc12)C(C)C (stereo not drawn) [Entry 9-85] | 100 to 1000 | –
15 | CC(N)C(=O)NC(C(=O)N1CCCC1Cc1c(-c2cnccn2)oc2ccccc12)C(C)C (stereo not drawn) [Entry 9-86] | < 100 | –
16 | CC(N)C(=O)NC(C(=O)N1CCCC1Cc1c(-c2ccccc2)[nH]c2ccccc12)C(C)C (stereo not drawn) [Entry 9-88] | 1000 to 10000 | –
17 | CCOC(=O)CCc1oc2ccccc2c1CC1CCCN1C(=O)C(NC(=O)C(C)N)C(C)C (stereo not drawn) [Entry 10-89, 3-(3-{1-[2-(2-Amino-propionylamino)-3-methyl-butyryl]-pyrrolidin-2-ylmethyl}-benzofuran-2-yl)-propionic acid ethyl ester] | 1000 to 10000 | –
18 | CC(N)C(=O)NC(C(=O)N1CCCC1Cc1c(CCC(=O)O)oc2ccccc12)C(C)C (stereo not drawn) [Entry 10-90] | 100 to 1000 | –
19 | C[C@H](N)C(=O)N[C@H]1CCCNC(=O)CCc2oc3ccccc3c2C[C@@H]2CCCN2C1=O [Entry 11-91, Ornithine-derived Lactam] | 100 to 1000 | –
20 | CC(N)C(=O)NC1CCCCNC(=O)CCc2oc3ccccc3c2CC2CCCN2C1=O (stereo not drawn) [Entry 12-92] | 1000 to 10000 | –

Row | Compound | Kd (XIAP-BIR3) [nM] | EC50 (SK-OV-3 cells) [µM]
21 | C[C@H](N)C(=O)N[C@H]1Cc2ccc(cc2)OCCCc2oc3ccccc3c2C[C@@H]2CCCN2C1=O [Entry 13-93, Tyrosine-derived Cyclic Ether] | 100 to 1000 | –
22 | CC(=O)n1cc(C[C@@H]2CCCN2C(=O)[C@@H](NC(=O)[C@H](C)N)C(C)C)c2ccccc21 [Entry 14-94, N-{1S-[2S-(1-Acetyl-1H-indol-3-ylmethyl)-pyrrolidine-1-carbonyl]-2-methyl-propyl}-2S-amino-propionamide] | < 100 | –
23 | CC(=O)n1cc(CC2CCCN2C(=O)C(NC(=O)CN)C(C)C)c2ccccc21 (stereo not drawn) [Entry 14-95] | > 10000 | –
24 | CNC(C)C(=O)NC(C(=O)N1CCCC1Cc1cn(C(C)=O)c2cc(F)ccc12)C(C)(C)C (stereo not drawn) [Entry 14-96] | 100 to 1000 | –
25 | CNC(C)C(=O)NC(C(=O)N1CCCC1Cc1cn(C(C)=O)c2cc(F)ccc12)C1CCCCC1 (stereo not drawn) [Entry 14-97] | 100 to 1000 | –
26 | CC(=O)n1cc(CC2CCCN2C(=O)C(NC(=O)C(C)N)C(C)C)c2cccc(C)c21 (stereo not drawn) [Entry 14-98] | < 100 | –
27 | CC(C)[C@H](NC(=O)[C@H](C)N)C(=O)N1CCC[C@H]1Cc1c[nH]c2ccccc12 [Entry 14-99, 2S-Amino-N-{1S-[2S-(1H-indol-3-ylmethyl)-pyrrolidine-1-carbonyl]-2-methyl-propyl}-propionamide] | 100 to 1000 | –
28 | Cc1cccc2c(CC3CCCN3C(=O)C(NC(=O)C(C)N)C(C)C)c[nH]c12 (stereo not drawn) [Entry 14-100] | < 100 | –
29 | CC(NC(=O)OC(C)(C)C)C(=O)NC(C(=O)N1CCCC1Cc1cn(C(=O)OC(C)(C)C)c2ccccc12)C(C)C (stereo not drawn) [Entry 14-101] | > 10000 | –
30 | CC#CCn1cc(CC2CCCN2C(=O)C(NC(=O)C(C)N)C(C)C)c2ccccc21 (stereo not drawn) [Entry 14-102] | 100 to 1000 | –
31 | C#CCn1cc(CC2CCCN2C(=O)C(NC(=O)C(C)N)C(C)C)c2ccccc21 (stereo not drawn) [Entry 14-103] | < 100 | –
32 | CNC(C)C(=O)NC(C(=O)N1CCCC1Cc1c[nH]c2cc(F)ccc12)C1CCCCC1 (stereo not drawn) [Entry 14-104] | 100 to 1000 | 0.515 ± 0.093
33 | Cc1ccc(S(=O)(=O)n2cc(C[C@@H]3CCCN3C(=O)[C@@H](NC(=O)[C@H](C)N)C(C)C)c3ccccc32)cc1 [Entry 15-107, 2S-Amino-N-(2-methyl-1S-{2S-[1-(toluene-4-sulfonyl)-1H-indol-3-ylmethyl]-pyrrolidine-1-carbonyl}-propyl)-propionamide] | < 100 | –
34 | CNC(C)C(=O)NC(C(=O)N1CCCC1Cc1c(-c2cccs2)[nH]c2cc(F)ccc12)C(C)(C)C (stereo not drawn) [Entry 15-108] | < 100 | –
35 | CNC(C)C(=O)NC(C(=O)N1CCCC1Cc1cn(CCOCCOCCOC)c2cc(F)ccc12)C1CCCCC1 (stereo not drawn) [Entry 16-109, N-{1-Cyclohexyl-2-[2-(6-fluoro-1-{2-[2-(2-methoxy-ethoxy)-ethoxy]-ethyl}-1H-indol-3-ylmethyl)-pyrrolidin-1-yl]-2-oxo-ethyl}-2-methylamino-propionamide] | 100 to 1000 | 0.06 ± 0.026
36 | CCC(NC)C(=O)NC(C(=O)N1CCCC1Cc1cn(CCOCCOCCOC)c2ccccc12)C1CCCCC1 (stereo not drawn) [Entry 16-110] | 100 to 1000 | –
37 | CNC(C)C(=O)NC(C(=O)N1CCCC1Cc1cn(CCOCCOCCOC)c2ccccc12)C1CCCCC1 (stereo not drawn) [Entry 16-111] | 100 to 1000 | –
38 | CNC(C)C(=O)NC(C(=O)N1CCCC1Cc1c(Br)n(CCOCCOCCO)c2cc(F)ccc12)C(C)(C)C (stereo not drawn) [Entry 16-112] | < 100 | –
39 | CNC(C)C(=O)NC(C(=O)N1CCCC1Cc1c(Br)n(CCOCCOCCOC)c2cc(F)ccc12)C(C)(C)C (stereo not drawn) [Entry 16-113] | < 100 | –
40 | CNC(C)C(=O)NC(C(=O)N1CCCC1Cc1c(-c2cccs2)n(CCOCCOCCOC)c2cc(F)ccc12)C(C)(C)C (stereo not drawn) [Entry 16-114] | < 100 | –
